Source: ChEMBL document CHEMBL5579861, “Cytotoxic Peptaibols from Trichoderma guizhouense, a Fungus Isolated from an Urban Soil Sample” (J Nat Prod, 2024)
Non-standard residues stand in square brackets, D forms with d. Residues, ends and D or L forms follow the SMILES beside them. *: point of attachment. Leu(ol) = CC(C)C[C@H](N)CO; dIva = CC[C@@](C)(N)C(=O)O; Valol = CC(C)[C@@H](CO)N*; Aib = CC(C)(N)C(=O)O

Tests used:
MDA-MB-231 = assay: Cytotoxicity against human MDA-MB-231 cells assessed as reduction in cell viability after 24 hrs by MTT assay; type: functional, cell-based; details: MDA-MB-231, 24 h
SK-HEP1 = assay: Cytotoxicity against human SK-HEP1 cells assessed as reduction in cell viability after 24 hrs by MTT assay; type: functional, cell-based; details: SK-HEP1, 24 h
SK-OV-3 = assay: Cytotoxicity against human SK-OV-3 cells assessed as reduction in cell viability after 24 hrs by MTT assay; type: functional, cell-based; details: SK-OV-3, 24 h
DU-145 = assay: Cytotoxicity against human DU-145 cells assessed as reduction in cell viability after 24 hrs by MTT assay; type: functional, cell-based; details: DU-145, 24 h
HCT-116 = assay: Cytotoxicity against human HCT-116 cells assessed as reduction in cell viability after 24 hrs by MTT assay; type: functional, cell-based; details: HCT-116, 24 h
Plasmodium falciparum = assay: Antimalarial activity against Plasmodium falciparum Dd2 assessed as reduction in parasite growth incubated for 72 hrs by SYBR Green I staining based assay; type: functional, organism-based; details: Dd2, 72 h
[1] = Cytotoxicity against human HepG2 cells assessed as reduction in cell viability after 48 hrs by MTS assay; type: toxicity, cell-based
[2] = Selectivity index, ratio of EC50 for cytotoxicity against human HepG2 cells to EC50 for antimalarial activity against Plasmodium falciparum Dd2; type: toxicity, cell-based; details: read-out: Ratio EC50

Row | SMILES | IC50 (MDA-MB-231) [µM] | IC50 (SK-HEP1) [µM] | IC50 (SK-OV-3) [µM] | IC50 (DU-145) [µM] | IC50 (HCT-116) [µM] | EC50 (Plasmodium falciparum) [µM] | EC50 at 48 h [1] [µM] | selectivity ratio [2]
1 | CC[C@@](C)(NC(C)=O)C(=O)N[C@@H](CCC(N)=O)C(=O)N[C@@H](CC(C)C)C(=O)NC(C)(C)C(=O)N1CCC[C@H]1C(=O)N[C@@H](C)C(=O)N[C@H](C(=O)NC(C)(C)C(=O)N1CCC[C@H]1C(=O)N[C@@H](CC(C)C)C(=O)N[C@@H](CC(C)C)C(=O)NC(C)(C)C(=O)N1CCC[C@H]1C(=O)N[C@H](CO)CC(C)C)C(C)C | 14 | 19 | 15 | 25 | 14 |  |  | 
2 | CC[C@@](C)(NC(=O)[C@H](C)NC(=O)[C@H](CO)NC(=O)C(C)(C)NC(C)=O)C(=O)N[C@](C)(CC)C(=O)N[C@@H](CCC(N)=O)C(=O)N[C@](C)(CC)C(=O)N[C@@H](CC(C)C)C(=O)NC(C)(C)C(=O)N[C@@H](C)C(=O)NC(C)(C)C(=O)NC(C)(C)C(=O)N1CCC[C@H]1C(=O)N[C@@H](CC(C)C)C(=O)NC(C)(C)C(=O)NC(C)(C)C(=O)N[C@@H](CCC(N)=O)C(=O)N[C@H](CO)C(C)C | 0.68 | 0.91 | 0.91 | 1.4 | 0.71 |  |  | 
3 | CC[C@@](C)(NC(C)=O)C(=O)N[C@@H](CCC(N)=O)C(=O)N[C@@H](CC(C)C)C(=O)NC(C)(C)C(=O)N1CCC[C@H]1C(=O)N[C@@H](C)C(=O)N[C@H](C(=O)NC(C)(C)C(=O)N1CCC[C@H]1C(=O)N[C@](C)(CC)C(=O)N[C@@H](CC(C)C)C(=O)NC(C)(C)C(=O)N1CCC[C@H]1C(=O)N[C@H](CO)CC(C)C)C(C)C | 5.9 | 4.3 | 4.3 | 9.2 | 2.7 |  |  | 
4 | CC[C@@](C)(NC(=O)[C@H](C)NC(=O)[C@H](C)NC(=O)C(C)(C)NC(C)=O)C(=O)N[C@](C)(CC)C(=O)N[C@@H](CCC(N)=O)C(=O)N[C@](C)(CC)C(=O)N[C@@H](CC(C)C)C(=O)NC(C)(C)C(=O)N[C@@H](C)C(=O)NC(C)(C)C(=O)NC(C)(C)C(=O)N1CCC[C@H]1C(=O)N[C@@H](CC(C)C)C(=O)NC(C)(C)C(=O)NC(C)(C)C(=O)N[C@@H](CCC(N)=O)C(=O)N[C@H](CO)C(C)C | 0.85 | 0.97 | 2.9 | 4.5 | 0.83 |  |  | 
5 | CC[C@H](C)[C@H](NC(=O)[C@@](C)(CC)NC(=O)[C@@H]1CCCN1C(=O)C(C)(C)NC(=O)[C@@H](NC(=O)[C@H](C)NC(=O)[C@@H]1CCCN1C(=O)C(C)(C)NC(=O)[C@H](CC(C)C)NC(=O)[C@H](CCC(N)=O)NC(=O)C(C)(C)NC(C)=O)C(C)C)C(=O)NC(C)(C)C(=O)N1CCC[C@H]1C(=O)N[C@H](CO)C(C)C | 3.9 | 4.6 | 3.8 | 9.3 | 3.5 |  |  | 
6 | CC[C@@](C)(NC(=O)[C@H](C)NC(=O)[C@H](CO)NC(=O)C(C)(C)NC(C)=O)C(=O)N[C@](C)(CC)C(=O)N[C@@H](CCC(N)=O)C(=O)N[C@](C)(CC)C(=O)N[C@@H](CC(C)C)C(=O)NC(C)(C)C(=O)N[C@@H](C)C(=O)NC(C)(C)C(=O)NC(C)(C)C(=O)N1CCC[C@H]1C(=O)N[C@@H](CC(C)C)C(=O)NC(C)(C)C(=O)NC(C)(C)C(=O)N[C@@H](CCC(N)=O)C(=O)N[C@H](COC(C)=O)C(C)C | 0.84 | 2.1 | 2.9 | 1.5 | 0.88 |  |  | 
7 | CC[C@H](C)[C@H](NC(=O)C(C)(C)NC(=O)[C@@H]1CCCN1C(=O)C(C)(C)NC(=O)[C@@H](NC(=O)[C@H](C)NC(=O)[C@@H]1CCCN1C(=O)C(C)(C)NC(=O)[C@H](CC(C)C)NC(=O)[C@H](CCC(N)=O)NC(=O)[C@@](C)(CC)NC(C)=O)C(C)C)C(=O)NC(C)(C)C(=O)N1CCC[C@H]1C(=O)N[C@H](CO)CC(C)C | 20 | 4.8 | > 50 | > 50 | 16 |  |  | 
8 | CC[C@H](C)[C@H](NC(=O)[C@@](C)(CC)NC(=O)[C@@H]1CCCN1C(=O)C(C)(C)NC(=O)[C@@H](NC(=O)[C@H](C)NC(=O)[C@@H]1CCCN1C(=O)C(C)(C)NC(=O)[C@H](CC(C)C)NC(=O)[C@H](CCC(N)=O)NC(=O)C(C)(C)NC(C)=O)C(C)C)C(=O)NC(C)(C)C(=O)N1CCC[C@H]1C(=O)N[C@H](CO)CC(C)C | 4.3 | 3.8 | 3.8 | 10 | 3 |  |  | 
9 | CC[C@H](C)[C@H](NC(=O)[C@@](C)(CC)NC(=O)[C@@H]1CCCN1C(=O)C(C)(C)NC(=O)[C@@H](NC(=O)[C@H](C)NC(=O)[C@@H]1CCCN1C(=O)C(C)(C)NC(=O)[C@H](CC(C)C)NC(=O)[C@H](CCC(N)=O)NC(=O)[C@@](C)(CC)NC(C)=O)C(C)C)C(=O)NC(C)(C)C(=O)N1CCC[C@H]1C(=O)N[C@H](CO)CC(C)C | 5.5 | 8 | 9.2 | 20 | 4.8 |  |  | 
10 | CC[C@H](C)[C@H](NC(=O)C(C)(C)NC(=O)[C@@H]1CCCN1C(=O)C(C)(C)NC(=O)[C@@H](NC(=O)[C@H](C)NC(=O)[C@@H]1CCCN1C(=O)C(C)(C)NC(=O)[C@H](CC(C)C)NC(=O)[C@H](CCC(N)=O)NC(=O)C(C)(C)NC(C)=O)C(C)C)C(=O)NC(C)(C)C(=O)N1CCC[C@H]1C(=O)N[C@H](CO)C(C)C (Ac-[Aib]QL[Aib]PAV[Aib]P[Aib]I[Aib]P-Valol) | 4.6 | 11 | 7.8 | 16 | 9.5 |  |  | 
11 | CC[C@H](C)[C@H](NC(=O)C(C)(C)NC(=O)[C@@H]1CCCN1C(=O)C(C)(C)NC(=O)[C@@H](NC(=O)[C@H](C)NC(=O)[C@@H]1CCCN1C(=O)C(C)(C)NC(=O)[C@H](CC(C)C)NC(=O)[C@H](CCC(N)=O)NC(=O)C(C)(C)NC(C)=O)C(C)C)C(=O)NC(C)(C)C(=O)N1CCC[C@H]1C(=O)N[C@H](CO)CC(C)C (Ac-[Aib]QL[Aib]PAV[Aib]P[Aib]I[Aib]P[Leu(ol)]) | 37 | 31 | 24 | 36 | 16 |  |  | 
12 | CC(=O)NC(C)(C)C(=O)N[C@@H](CCC(N)=O)C(=O)N[C@@H](CC(C)C)C(=O)NC(C)(C)C(=O)N1CCC[C@H]1C(=O)N[C@@H](C)C(=O)N[C@H](C(=O)NC(C)(C)C(=O)N1CCC[C@H]1C(=O)NC(C)(C)C(=O)N[C@H](C(=O)NC(C)(C)C(=O)N1CCC[C@H]1C(=O)N[C@H](CO)CC(C)C)C(C)C)C(C)C (Ac-[Aib]QL[Aib]PAV[Aib]P[Aib]V[Aib]P[Leu(ol)]) | 6.4 | 8.9 | 5.3 | 11 | 7.1 |  |  | 
13 | CC[C@H](C)[C@H](NC(=O)[C@H](CC(C)C)NC(=O)[C@H](CCC(N)=O)NC(=O)[C@@](C)(CC)NC(C)=O)C(=O)NC(C)(C)C(=O)N1CCC[C@H]1C(=O)N[C@](C)(CC)C(=O)N[C@@H](CC(C)C)C(=O)NC(C)(C)C(=O)N1CCC[C@H]1C(=O)N[C@H](CO)CC(C)C (Ac-[dIva]QLI[Aib]P[dIva]L[Aib]P[Leu(ol)]) |  |  |  |  |  | 0.1 | > 25 | > 250
14 | CC(=O)O[C@@]12CO[C@@H]1C[C@H](O)[C@@]1(C)C(=O)[C@H](O)C3=C(C)[C@@H](OC(=O)[C@H](O)[C@@H](NC(=O)OC(C)(C)C)c4ccccc4)C[C@@](O)([C@@H](OC(=O)c4ccccc4)[C@H]21)C3(C)C [DOCETAXEL ANHYDROUS] | 0.17 | 0.03 | 0.05 | 0.04 |  |  |  | 
